From the NIST ThermoML archive (doi:10.1021/je060485s)
± gives the expanded uncertainty stated by the source.

How the values were obtained:
[1] = for surface tension liquid-gas: Pendant drop shape; for mass density: 101 kPa, Liquid
[2] = xn = mol fraction of the nth substance listed; conditions: for surface tension liquid-gas: Pendant drop shape; for mass density: 101 kPa, Liquid

Cc1ccc(C)cc1 [1,4-dimethylbenzene]
surface tension liquid-gas ([1]; 298.15 K): 28.08 ± 0.3 mN/m | mass density ([1]; 298.15 K): 856.92 ± 0.36 kg/m3 | surface tension liquid-gas ([1]; 303.15 K): 27.47 ± 0.29 mN/m | mass density ([1]; 303.15 K): 852.58 ± 0.37 kg/m3 | surface tension liquid-gas ([1]; 308.15 K): 27.13 ± 0.29 mN/m | mass density ([1]; 308.15 K): 848.26 ± 0.37 kg/m3

Cc1ccccc1C [1,2-dimethylbenzene] + CCCOC(C)=O
surface tension liquid-gas ([2]; 298.15 K, x2 = 0): 29.89 ± 0.32 mN/m | mass density ([2]; 298.15 K, x2 = 0): 875.05 ± 0.34 kg/m3 | surface tension liquid-gas ([2]; 303.15 K, x2 = 0): 29.24 ± 0.31 mN/m | mass density ([2]; 303.15 K, x2 = 0): 870.83 ± 0.35 kg/m3 | surface tension liquid-gas ([2]; 308.15 K, x2 = 0): 28.57 ± 0.31 mN/m | mass density ([2]; 308.15 K, x2 = 0): 866.62 ± 0.36 kg/m3

CCCOC(C)=O [propyl ethanoate]
surface tension liquid-gas ([1]; 298.15 K): 23.91 ± 0.27 mN/m | mass density ([1]; 298.15 K): 882.54 ± 0.35 kg/m3 | surface tension liquid-gas ([1]; 303.15 K): 23.46 ± 0.27 mN/m | mass density ([1]; 303.15 K): 876.99 ± 0.35 kg/m3 | surface tension liquid-gas ([1]; 308.15 K): 22.79 ± 0.26 mN/m | mass density ([1]; 308.15 K): 871.35 ± 0.36 kg/m3

Cc1ccc(C)cc1 [1,4-dimethylbenzene] + CCCOC(C)=O
surface tension liquid-gas ([2]; 298.15 K, x2 = 0): 28.08 ± 0.3 mN/m | mass density ([2]; 298.15 K, x2 = 0): 856.92 ± 0.36 kg/m3 | surface tension liquid-gas ([2]; 303.15 K, x2 = 0): 27.47 ± 0.29 mN/m | mass density ([2]; 303.15 K, x2 = 0): 852.58 ± 0.37 kg/m3 | surface tension liquid-gas ([2]; 308.15 K, x2 = 0): 27.13 ± 0.29 mN/m | mass density ([2]; 308.15 K, x2 = 0): 848.26 ± 0.37 kg/m3

Cc1ccccc1C [1,2-dimethylbenzene]
surface tension liquid-gas ([1]; 298.15 K): 29.89 ± 0.32 mN/m | mass density ([1]; 298.15 K): 875.05 ± 0.34 kg/m3 | surface tension liquid-gas ([1]; 303.15 K): 29.24 ± 0.31 mN/m | mass density ([1]; 303.15 K): 870.83 ± 0.35 kg/m3 | surface tension liquid-gas ([1]; 308.15 K): 28.57 ± 0.31 mN/m | mass density ([1]; 308.15 K): 866.62 ± 0.36 kg/m3

CCCOC(C)=O [propyl ethanoate] + Cc1ccccc1C
surface tension liquid-gas ([2]; 298.15 K, x1 = 0.0998): 28.94 ± 0.31 mN/m | surface tension liquid-gas ([2]; 298.15 K, x1 = 0.1995): 28.14 ± 0.3 mN/m | surface tension liquid-gas ([2]; 298.15 K, x1 = 0.2996): 27.47 ± 0.3 mN/m | surface tension liquid-gas ([2]; 298.15 K, x1 = 0.4002): 26.85 ± 0.29 mN/m | surface tension liquid-gas ([2]; 298.15 K, x1 = 0.5001): 26.27 ± 0.29 mN/m | surface tension liquid-gas ([2]; 298.15 K, x1 = 0.6004): 25.71 ± 0.28 mN/m | surface tension liquid-gas ([2]; 298.15 K, x1 = 0.7002): 25.18 ± 0.28 mN/m | surface tension liquid-gas ([2]; 298.15 K, x1 = 0.7999): 24.69 ± 0.28 mN/m | surface tension liquid-gas ([2]; 298.15 K, x1 = 0.9): 24.25 ± 0.27 mN/m | surface tension liquid-gas ([2]; 298.15 K, x1 = 1): 23.91 ± 0.27 mN/m | mass density ([2]; 298.15 K, x1 = 0.0998): 876.04 ± 0.34 kg/m3 | mass density ([2]; 298.15 K, x1 = 0.1995): 876.96 ± 0.34 kg/m3 | mass density ([2]; 298.15 K, x1 = 0.2996): 877.83 ± 0.34 kg/m3 | mass density ([2]; 298.15 K, x1 = 0.4002): 878.67 ± 0.34 kg/m3 | mass density ([2]; 298.15 K, x1 = 0.5001): 879.45 ± 0.34 kg/m3 | mass density ([2]; 298.15 K, x1 = 0.6004): 880.18 ± 0.34 kg/m3 | mass density ([2]; 298.15 K, x1 = 0.7002): 880.85 ± 0.34 kg/m3 | mass density ([2]; 298.15 K, x1 = 0.7999): 881.46 ± 0.35 kg/m3 | mass density ([2]; 298.15 K, x1 = 0.9): 882.03 ± 0.35 kg/m3 | mass density ([2]; 298.15 K, x1 = 1): 882.54 ± 0.35 kg/m3 | surface tension liquid-gas ([2]; 303.15 K, x1 = 0.0999): 28.41 ± 0.3 mN/m | surface tension liquid-gas ([2]; 303.15 K, x1 = 0.1997): 27.6 ± 0.3 mN/m | surface tension liquid-gas ([2]; 303.15 K, x1 = 0.2992): 26.92 ± 0.29 mN/m | surface tension liquid-gas ([2]; 303.15 K, x1 = 0.3998): 26.3 ± 0.29 mN/m | surface tension liquid-gas ([2]; 303.15 K, x1 = 0.4993): 25.74 ± 0.28 mN/m | surface tension liquid-gas ([2]; 303.15 K, x1 = 0.6002): 25.2 ± 0.28 mN/m | surface tension liquid-gas ([2]; 303.15 K, x1 = 0.6994): 24.7 ± 0.28 mN/m | surface tension liquid-gas ([2]; 303.15 K, x1 = 0.8002): 24.24 ± 0.27 mN/m | surface tension liquid-gas ([2]; 303.15 K, x1 = 0.902): 23.81 ± 0.27 mN/m | surface tension liquid-gas ([2]; 303.15 K, x1 = 1): 23.46 ± 0.27 mN/m | mass density ([2]; 303.15 K, x1 = 0.1): 871.68 ± 0.35 kg/m3 | mass density ([2]; 303.15 K, x1 = 0.1997): 872.48 ± 0.35 kg/m3 | mass density ([2]; 303.15 K, x1 = 0.2992): 873.22 ± 0.35 kg/m3 | mass density ([2]; 303.15 K, x1 = 0.3998): 873.93 ± 0.35 kg/m3 | mass density ([2]; 303.15 K, x1 = 0.4993): 874.57 ± 0.35 kg/m3 | mass density ([2]; 303.15 K, x1 = 0.6002): 875.17 ± 0.35 kg/m3 | mass density ([2]; 303.15 K, x1 = 0.6994): 875.7 ± 0.35 kg/m3 | mass density ([2]; 303.15 K, x1 = 0.8002): 876.19 ± 0.35 kg/m3 | mass density ([2]; 303.15 K, x1 = 0.902): 876.63 ± 0.35 kg/m3 | mass density ([2]; 303.15 K, x1 = 1): 876.99 ± 0.35 kg/m3 | surface tension liquid-gas ([2]; 308.15 K, x1 = 0.0999): 27.8 ± 0.3 mN/m | surface tension liquid-gas ([2]; 308.15 K, x1 = 0.1999): 27.05 ± 0.29 mN/m | surface tension liquid-gas ([2]; 308.15 K, x1 = 0.3001): 26.35 ± 0.29 mN/m | surface tension liquid-gas ([2]; 308.15 K, x1 = 0.3989): 25.73 ± 0.28 mN/m | surface tension liquid-gas ([2]; 308.15 K, x1 = 0.5002): 25.14 ± 0.28 mN/m | surface tension liquid-gas ([2]; 308.15 K, x1 = 0.6008): 24.6 ± 0.27 mN/m | surface tension liquid-gas ([2]; 308.15 K, x1 = 0.6998): 24.1 ± 0.27 mN/m | surface tension liquid-gas ([2]; 308.15 K, x1 = 0.8007): 23.63 ± 0.27 mN/m | surface tension liquid-gas ([2]; 308.15 K, x1 = 0.9): 23.2 ± 0.26 mN/m | surface tension liquid-gas ([2]; 308.15 K, x1 = 1): 22.79 ± 0.26 mN/m | mass density ([2]; 308.15 K, x1 = 0.0999): 867.33 ± 0.36 kg/m3 | mass density ([2]; 308.15 K, x1 = 0.1999): 867.99 ± 0.36 kg/m3 | mass density ([2]; 308.15 K, x1 = 0.3001): 868.59 ± 0.36 kg/m3 | mass density ([2]; 308.15 K, x1 = 0.3989): 869.15 ± 0.36 kg/m3 | mass density ([2]; 308.15 K, x1 = 0.5002): 869.66 ± 0.36 kg/m3 | mass density ([2]; 308.15 K, x1 = 0.6008): 870.11 ± 0.36 kg/m3 | mass density ([2]; 308.15 K, x1 = 0.6998): 870.5 ± 0.36 kg/m3 | mass density ([2]; 308.15 K, x1 = 0.8007): 870.84 ± 0.36 kg/m3 | mass density ([2]; 308.15 K, x1 = 0.9): 871.12 ± 0.36 kg/m3 | mass density ([2]; 308.15 K, x1 = 1): 871.35 ± 0.36 kg/m3
